In ChEMBL document CHEMBL2046321, “Molecular Docking and in Vitro Antileishmanial Evaluation of Chromene-2-thione Analogues” (ACS Med Chem Lett, 2012):

Assays:
[1] = tested on: Leishmania donovani; assay: Antileishmanial activity against axenic amastigotes of Leishmania donovani LEM-138 (MHOM/IN/00/DEVI) by MTT assay; assay type: functional, organism-based
[2] = tested on: Leishmania donovani; assay: Antileishmanial activity against promastigotes of Leishmania donovani LEM-138 (MHOM/IN/00/DEVI) by MTT assay; assay type: functional, organism-based
[3] = tested on: Leishmania donovani; assay: Ratio of IC50 for promastigotes of Leishmania donovani LEM-138 (MHOM/IN/00/DEVI) to IC50 for axenic amastigotes of Leishmania donovani LEM-138 (MHOM/IN/00/DEVI); assay type: functional
[4] = Cytotoxicity against human PBMC assessed as cell killing at IC50 after 48 hrs by MTT assay; settings: PBMC (peripheral blood mononuclear cells)
[5] = Cytotoxicity against human PBMC assessed as cell killing at 2 times IC50 after 48 hrs by MTT assay; settings: PBMC (peripheral blood mononuclear cells)
[6] = tested on: Leishmania donovani; assay: Antileishmanial activity against amastigotes of Leishmania donovani LEM-138 (MHOM/IN/00/DEVI) infected in mouse J774A.1 cells after 72 hrs by Giemsa dye staining; assay type: functional, organism-based; settings: J774.A1, 72 h

IC50 [6] [µM]	Compound	IC50 [1] [µM]	IC50 [2] [µM]	Ratio IC50 [3]	cell killing at 48 h [4] [%]	cell killing at 48 h [5] [%]
	COc1ccc(C(=O)c2cc3cccc(OC)c3oc2=S)cc1	502	1400	2.8	16.6	14.8
	COc1cccc2cc(C(=O)c3ccc(C)cc3)c(=S)oc12	446	744	1.7	9.4	33.1
24	COc1cccc2cc(C(=O)c3ccc(Cl)cc3)c(=S)oc12	73	48	0.66	0.46	20.2
17	COc1ccc(C(=O)c2cc3cc(Br)ccc3oc2=S)cc1	198	450	2.3	32.9	40.5
	COc1cccc2cc(C(=O)c3cccs3)c(=S)oc12	927	4300	4.6	11.1	19.5
26	COc1cccc2cc(C(=O)c3ccco3)c(=S)oc12	65	1220	18.8	12.3	26
	O=C(c1ccco1)c1cc2cc(Br)ccc2oc1=S	524	1030	2	10.7	17.6
	O=C(c1cccs1)c1cc2cc(Br)ccc2oc1=S	83	4630	55.8	10.9	6.66
	COc1ccc(C(=O)c2cc3c(ccc4ccccc43)oc2=S)cc1	221	335	1.5	15.1	27
	O=C(c1ccco1)c1cc2c(ccc3ccccc32)oc1=S	37	2770	75	12	27.8
22	O=C(c1cccs1)c1cc2c(ccc3ccccc32)oc1=S	36	97	2.7	28.8	24.6
	C[C@@H]1[C@H](O)[C@@H](C)/C=C/C=C/C=C/C=C/C=C/C=C/C=C/[C@H](O[C@@H]2O[C@H](C)[C@@H](O)[C@H](N)[C@@H]2O)C[C@@H]2O[C@](O)(C[C@@H](O)C[C@@H](O)[C@H](O)CC[C@@H](O)C[C@@H](O)CC(=O)O[C@H]1C)C[C@H](O)[C@H]2C(=O)O [AMPHOTERICIN B]	0.061	0.465		16	24.4
